Experimental data from EPA's ToxValDB 9.5 (doi:10.2903/j.efsa.2009.190r).

Legend:
Rattus norvegicus = settings: for NOAEL: inhalation
Tagia sp. = settings: acute; duration: 14 days; mortality
[1] = chronic, duration: 2 years, no effects
[2] = reproduction developmental, mortality
[3] = subchronic, duration: 90 days, no effects

| Compound | NOAEL (Rattus norvegicus; [1]) | NOAEL (Rattus norvegicus; developmental, duration: 10 days, development) | NOAEL (Rattus norvegicus; [2]) | NOAEL (Rattus norvegicus; subchronic, duration: 90 days, mortality) | NOAEL (Rattus norvegicus; [3]) | LD50 (Rattus norvegicus; acute, oral, mortality) | LC50 (Tagia sp.) |
| --- | --- | --- | --- | --- | --- | --- | --- |
| P [Phosphine] | 1.1 mg/kg-day | 1.9 mg/kg-day | 1.9 mg/kg-day | 1.1 mg/kg-day | 1.1 mg/kg-day | – | – |
| [Mg+2].[Mg+2].[Mg+2].[P-3].[P-3] [Magnesium phosphide] | 1.1 mg/kg-day | – | 1.9 mg/kg-day | – | 1.1 mg/kg-day | 11.2 mg/kg-day | 664 mg/kg |
